In EP0966464B1, “SUBSTITUTED 2,4-DIAMINOPYRIMIDINES” (priority 1997, dated 1998):

Columns and labels:
Test in all cases: Inhibition of purified bacterial dihydrofolate reductase (method of Baccanari and Joyner)
Assay type in all cases: biochemical
[1] = target: purified DHFR of the multiresistant strain S. aureus 157/4696 (Staphylococcus aureus, UniProt P0A017); details: read-out: IC50 values S.aureus 157/4696, IC50 determined by means of a graph
Source text: (§1) The inhibition of this enzyme was taken as a measurement of the antibacterial activity.

[2] = target: T1, purified DHFR of the multiresistant strain Streptococcus pneumoniae 1/1 (Streptococcus pneumoniae serotype 4, UniProt Q54801); details: read-out: IC50 values S.pneumoniae 1/1, IC50 determined by means of a graph
T1 sequence (Q54801 1-168): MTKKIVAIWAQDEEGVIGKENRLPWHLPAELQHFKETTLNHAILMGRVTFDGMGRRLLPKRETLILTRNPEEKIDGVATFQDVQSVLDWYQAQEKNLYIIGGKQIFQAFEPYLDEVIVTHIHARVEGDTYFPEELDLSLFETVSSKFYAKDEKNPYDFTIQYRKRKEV
Source text: as §1

[3] = target: purified DHFR of the reference strain S. aureus ATCC 25923 (Staphylococcus aureus, UniProt P0A017)
Source text: as §1

SMILES: COc1cc(Cc2cnc(N)nc2N)cc(/C=C/C(=O)N2N=Cc3ccccc3C2c2ccccc2)c1OC (racemic) [A, (E)-(RS)-3-[5-(2,4-Diamino-pyrimidin-5-ylmethyl)-2,3-dimethoxyphenyl]-1-(1-phenyl-1H-phthalazin-2-yl)-propenone]
- IC50 [1]: 2 nM
- IC50 [2]: 12 nM
- IC50 [3]: 2 nM

SMILES: COc1cc(Cc2cnc(N)nc2N)cc(/C=C/C(=O)N2N=Cc3ccccc3C2c2ccco2)c1OC (racemic) [B, (E)-(RS)-3-[5-(2,4-Diamino-pyrimidin-5-ylmethyl)-2,3-dimethoxyphenyl]-1-(1-furan-2-yl-1H-phthalazin-2-yl)-propenone]
- IC50 [1]: 8 nM
- IC50 [2]: 22 nM
- IC50 [3]: 2 nM

SMILES: COc1cc(Cc2cnc(N)nc2N)cc(/C=C/C(=O)N2N=Cc3ccccc3C2c2ccc(CO)cc2)c1OC (racemic) [C, (E)-(RS)-3-[5-(2,4-Diamino-pyrimidin-5-ylmethyl)-2,3-dimethoxyphenyl]-1-[1-(4-hydroxymethyl-phenyl)-1H-phthalazin-2-yl]-propenone]
- IC50 [1]: 1 nM
- IC50 [2]: 2 nM
- IC50 [3]: 1 nM

SMILES: COc1cc(Cc2cnc(N)nc2N)cc(/C=C/C(=O)N2N=Cc3ccccc3C2c2ccc(O)cc2)c1OC (racemic) [D, (E)-(RS)-3-[5-(2,4-Diamino-pyrimidin-5-ylmethyl)-2,3-dimethoxyphenyl]-1-[1-(4-hydroxy-phenyl)-1H-phthalazin-2-yl]-propenone]
- IC50 [1]: 3 nM
- IC50 [2]: 9 nM
- IC50 [3]: 2 nM

SMILES: CCC1c2ccccc2C=NN1C(=O)/C=C/c1cc(Cc2cnc(N)nc2N)cc(OC)c1OC (racemic) [E, (E)-(RS)-3-[5-(2,4-Diamino-pyrimidin-5-ylmethyl)-2,3-dimethoxyphenyl]-1-(1-ethyl-1H-phthalazin-2-yl)-propenone]
- IC50 [1]: 12 nM
- IC50 [2]: 18 nM
- IC50 [3]: 2 nM

SMILES: COc1cc(Cc2cnc(N)nc2N)cc(/C=C/C(=O)N2N=Cc3ccccc3C2CCCCO)c1OC (racemic) [F, (E)-(RS)-3-[5-(2,4-Diamino-pyrimidin-5-ylmethyl)-2,3-dimethoxyphenyl]-1-[1-(4-hydroxy-butyl)-1H-phthalazin-2-yl]-propenone]
- IC50 [1]: 3 nM
- IC50 [2]: 9 nM
- IC50 [3]: 1 nM

SMILES: CCCC1c2ccccc2C=NN1C(=O)/C=C/c1cc(Cc2cnc(N)nc2N)cc(OC)c1OC (racemic) [G, (E)-(RS)-3-{5-(2,4-Diamino-pyrimidin-5-ylmethyl)-2,3-dimethoxyphenyl}-1-(1-propyl-1H-phthalazin-2-yl)-propenone]
- IC50 [1]: 6 nM
- IC50 [2]: 5 nM
- IC50 [3]: 2 nM

SMILES: COc1cc(Cc2cnc(N)nc2N)cc(/C=C/C(=O)N2N=Cc3ccccc3C2c2ccc(C)nc2)c1OC (racemic) [I, (E)-(RS)-3-[5-(2,4-Diamino-pyrimidin-5-ylmethyl)-2,3-dimethoxyphenyl)-1-[1-(6-methyl-pyridin-3-yl)-1H-phthalazin-2-yl]-propenone]
- IC50 [1]: 0.4 nM
- IC50 [2]: 0.4 nM
- IC50 [3]: 0.4 nM

SMILES: CCc1ccc(C2c3ccccc3C=NN2C(=O)/C=C/c2cc(Cc3cnc(N)nc3N)cc(OC)c2OC)cn1 (racemic) [J, (E)-(RS)-3-[5-(2,4-Diamino-pyrimidin-5-ylmethyl)-2,3-dimethoxyphenyl]-1-[1-(6-ethyl-pyridin-3-yl)-1H-phthalazin-2-yl]-propenone]
- IC50 [1]: 0.2 nM
- IC50 [2]: 1.5 nM
- IC50 [3]: 0.3 nM

SMILES: COc1cc(Cc2cnc(N)nc2N)cc(/C=C/C(=O)N2N=Cc3ccccc3C2c2cnc(C)nc2)c1OC (racemic) [K, (E)-(RS)-3-[5-(2,4-Diamino-pyrimidin-5-ylmethyl)-2,3-dimethoxyphenyl]-1-[1-(2-methyl-pyrimidin-5-yl)-1H-phthalazin-2-yl]-propenone]
- IC50 [1]: 0.6 nM
- IC50 [2]: 2.5 nM
- IC50 [3]: 0.6 nM

SMILES: COc1cc(Cc2cnc(N)nc2N)cc(/C=C/C(=O)N2N=Cc3ccccc3[C@@H]2c2ccc(C)nc2)c1OC [H, (E)-(R)-3-[5-(2,4-Diamino-pyrimidin-5-ylmethyl)-2,3-dimethoxy-phenyl]-1-[1-(6-methyl-pyridin-3-yl)-1H-phthalazin-2-yl]-propenone]
- IC50 [1]: 0.4 nM
- IC50 [2]: 1.2 nM
- IC50 [3]: 0.3 nM
